# Measured values reported in BindingDB's records for doi:10.1124/mol.51.2.350 (Schering-Plough Research Institute, 1997).
# pKi: −log10 of the molar value. Square brackets hold non-standard residues; d marks the D form. Peptide text beside a SMILES is read from it. * marks the point of attachment. Phe(4-F) = N[C@@H](Cc1ccc(F)cc1)C(=O)O; hArg = N=C(N)NCCCC[C@H](N)C(=O)O; Cha = N[C@@H](CC1CCCCC1)C(=O)O; X1 = CC(=O)C(Cc1ccccc1)N*
# Biological target: Prothrombin (Homo sapiens, UniProt P00734)
row,Compound,pKi
1,CSCC[C@H](NC(=O)[C@H](CC(C)C)NC(=O)CNC(=O)[C@H](Cc1ccccc1)NC(=O)[C@H](Cc1ccccc1)NC(=O)[C@H](CCC(N)=O)NC(=O)[C@H](CCC(N)=O)NC(=O)[C@@H]1CCCN1C(=O)[C@H](CCCCN)NC(=O)[C@@H]1CCCN1C(=O)[C@@H](N)CCCN=C(N)N)C(N)=O [Arg-Pro-Lys-Pro-Gln-Gln-Phe-Phe-Gly-Leu-Met NH2],< 5.00
2,C[C@H](N)C(=O)N[C@@H](Cc1ccc(F)cc1)C(=O)N[C@@H](CCCN=C(N)N)C(=O)N[C@@H](CC1CCCCC1)C(=O)N[C@@H](CCCCN=C(N)N)C(=O)N[C@@H](Cc1ccccc1)C(N)=O [L-Ala-4-Fluoro-L-Phe-L-Arg-3-cyclohexyl-L-Ala-N-amidino-L-Lys-L-Phe-NH2] (H-A[Phe(4-F)]R[Cha][hArg]F-NH2),7.62
3,CC(C)CC(NC(=O)C(Cc1ccccc1)NC(=O)C(N)CO)C(=O)NC(CC(C)C)C(=O)NC(CCCN=C(N)N)C(=O)NC(CC(N)=O)C(=O)N1CCCC1C(=O)NC(CC(N)=O)C(=O)NC(CC(=O)O)C(=O)NC(CCCCN)C(=O)NC(Cc1ccc(O)cc1)C(=O)NC(CCC(=O)O)C(=O)N1CCCC1C(=O)NC(Cc1ccccc1)C(=O)O (centres undefined) [SFLLRNPNDKYEPF-OH] (H-SFLLRNPNDKYEPF-OH; configuration not given here),5.96
4,H-FSLLRN-NH2 [FSLLRN-NH2],< 5.00
5,NC(N)=NCCCC(N)C(=O)N1CCCC1C(=O)N1CCCC1C(=O)NCC(=O)NC(Cc1ccccc1)C(=O)NC(CO)C(=O)N1CCCC1C(=O)NC(Cc1ccccc1)C(=O)O (centres undefined) [CAS_58-82-2],< 5.00
6,CC(C)C[C@H](NC(=O)[C@H](CC(C)C)NC(=O)[C@H](Cc1ccccc1)NC(=O)[C@@H](N)CO)C(=O)N[C@@H](CCCN=C(N)N)C(=O)O [SFLLR-OH],< 5.00
7,CC(C)C[C@H](NC(=O)[C@H](CC(C)C)NC(=O)[C@H](Cc1ccccc1)NC(=O)[C@@H](N)CO)C(=O)N[C@@H](CCCN=C(N)N)C(=O)N[C@@H](CC(N)=O)C(N)=O [CAS_141923-40-2],6.77
8,CCC(C)C(NC(=O)C(CO)NC(=O)C(CC(N)=O)NC(=O)C(CC(C)C)NC(=O)C(Cc1ccc(O)cc1)NC(=O)C(CCCCN)NC(=O)C(CCCCN)NC(=O)C(NC(=O)C(C)NC(=O)C(CCSC)NC(=O)C(CCC(N)=O)NC(=O)C(CCCCN)NC(=O)C(CCCN=C(N)N)NC(=O)C(CC(C)C)NC(=O)C(CCCN=C(N)N)NC(=O)C(NC(=O)C(Cc1ccc(O)cc1)NC(=O)C(CC(N)=O)NC(=O)C(CC(=O)O)NC(=O)C(NC(=O)C(Cc1ccccc1)NC(=O)C(NC(=O)C(C)NC(=O)C(CC(=O)O)NC(=O)C(CO)NC(=O)C(N)Cc1cnc[nH]1)C(C)C)C(C)O)C(C)O)C(C)C)C(=O)NC(CC(C)C)C(=O)NC(CC(N)=O)C(=O)O (centres undefined) [CAS_37221-79-7],< 5.00
9,CC(=O)O[C@]1(C(C)=O)CC[C@H]2[C@@H]3C[C@H](C)C4=CC(=O)CC[C@]4(C)C3CC[C@@]21C (some centres undefined),< 5.00
10,H-SLIGKV-NH2 [CAS_190383-13-2],< 5.00
11,CCC(C)C(NC(=O)C(Cc1ccc(O)cc1)NC(=O)C(NC(=O)C(CCCN=C(N)N)NC(=O)C(N)CC(=O)O)C(C)C)C(=O)NC(Cc1cnc[nH]1)C(=O)NC(Cc1cnc[nH]1)C(=O)N1CCCC1C(=O)NC(Cc1ccccc1)C(C)=O (centres undefined) [NSC_439662] (H-DRVYIHHP-X1; configuration not given here),< 5.00
12,"CC(C)C[C@H](NC(=O)CNC(=O)[C@H](CC(N)=O)NC(=O)[C@H](CCCCN)NC(=O)[C@H](CC(=O)O)NC(=O)[C@H](CO)NC(=O)[C@H](Cc1ccccc1)NC(=O)[C@H](CO)NC(=O)[C@H](CCCNC(=N)N)NC(=O)[C@H](Cc1cnc[nH]1)NC(=O)[C@H](CC(N)=O)NC(=O)CNC(=O)[C@@H](NC(=O)[C@H](C)NC(=O)[C@H](Cc1cnc[nH]1)NC(=O)[C@@H]1CCCN1C(=O)CNC(=O)[C@H](CC(C)C)NC(=O)[C@H](CC(C)C)NC(=O)[C@H](Cc1ccc(O)cc1)NC(=O)CNC(=O)[C@H](C)NC(=O)[C@H](CO)NC(=O)[C@H](CC(N)=O)NC(=O)[C@H](CC(C)C)NC(=O)[C@@H](NC(=O)[C@H](Cc1c[nH]c2ccccc12)NC(=O)CN)[C@@H](C)O)C(C)C)C(=O)N[C@H](C(=O)N[C@@H](CO)C(=O)O)[C@@H](C)O [Galanin, Human]",< 5.00
13,CSCCC(NC(=O)C(CC(C)C)NC(=O)CNC(=O)C(NC(=O)C(Cc1ccccc1)NC(=O)C(CO)NC(=O)C(CC(=O)O)NC(=O)C(NC(=O)C(CCCCN)NC(=O)C(N)Cc1cnc[nH]1)C(C)O)C(C)C)C(N)=O (stereo not drawn) [Neurokinin alpha],< 5.00
14,CC(C)C[C@H](NC(=O)[C@H](CC(C)C)NC(=O)[C@H](Cc1ccccc1)NC(=O)[C@@H](N)CO)C(=O)N[C@@H](CCCN=C(N)N)C(=O)N[C@@H](CC(N)=O)C(=O)O [SFLLRN-OH],6.27
